Measured values reported in patent US20250136559A1, “SMO MODULATOR COMPOUNDS” (OMASS THERAPEUTICS LIMITED, priority 2022, published 2025).

Tests used:
Format in all cases: cell-based
mouse SMO^WT = molecular target: T1, mouse SMO^WT (Mus musculus, UniProt P56726); assay: Mouse assay: Gli1 qPCR in MEF cells stably expressing mouse SMO WT; conditions: mSHh-treated, 24 hours; for IC50: Gli1 inhibition by qPCR, read-out: Mouse WT pIC50 (converted); for Mouse WT % Inh: percentage Gli1 inhibition
T1 construct: expressed in transfected cells
T1 sequence (P56726 33-793): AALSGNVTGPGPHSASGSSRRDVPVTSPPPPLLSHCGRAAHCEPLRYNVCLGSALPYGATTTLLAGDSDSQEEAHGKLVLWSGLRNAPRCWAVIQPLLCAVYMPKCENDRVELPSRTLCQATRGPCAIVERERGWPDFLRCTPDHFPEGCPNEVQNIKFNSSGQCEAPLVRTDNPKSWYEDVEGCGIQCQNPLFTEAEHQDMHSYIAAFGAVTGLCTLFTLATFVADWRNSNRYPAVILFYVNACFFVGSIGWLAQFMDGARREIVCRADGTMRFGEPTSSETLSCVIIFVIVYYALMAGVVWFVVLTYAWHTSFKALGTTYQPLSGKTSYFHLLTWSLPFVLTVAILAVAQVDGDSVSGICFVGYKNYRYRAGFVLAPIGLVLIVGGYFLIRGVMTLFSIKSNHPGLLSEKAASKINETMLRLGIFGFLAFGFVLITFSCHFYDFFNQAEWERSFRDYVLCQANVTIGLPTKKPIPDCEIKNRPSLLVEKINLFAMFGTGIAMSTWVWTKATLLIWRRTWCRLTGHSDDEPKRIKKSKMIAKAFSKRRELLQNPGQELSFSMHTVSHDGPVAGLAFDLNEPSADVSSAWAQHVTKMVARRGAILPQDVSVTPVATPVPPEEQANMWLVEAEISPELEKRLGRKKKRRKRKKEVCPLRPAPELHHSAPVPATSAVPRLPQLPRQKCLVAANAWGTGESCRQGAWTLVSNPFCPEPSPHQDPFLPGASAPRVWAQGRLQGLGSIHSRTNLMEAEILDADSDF
Procedure: (§1) Cell culture. All materials were purchased from Sigma-Aldrich, unless otherwise stated.
(§2) Compound treatment. […] After 1 hour incubation, cells were treated with assay medium containing mSHh prepared at 2.5× of final assay concentrations specified in the text and incubated for a further 24 hours at 37′C in a humidified 95% air/5% CO2 atmosphere prior to qPCR analysis.
(§3) Cell lysis and one-step qPCR. The Cells-to-CT™ 1-Step TaqMan® Kit was used in conjunction with TaqMan primer-probe assays for the detection of Gli1 (FAM, Mm00494654_m1) and Gusb (VIC, Mm01197698_m1) genes (all purchased from Life Technologies). Following 24 hours cell treatment, spent medium was removed and cells were washed with PBS before the application of lysis and stop solution as per manufacturer's instructions. The qPCR reactions were run in a 384-well PCR plate using master mix prepared according to manufacturer's instructions and cell lysate samples from treatment wells. Real-time PCR amplification was detected using the Bio-Rad CFX384 Touch PCR system. Four experimental replicates (two cell replicates and two qPCR replicates) were performed for each compound concentration tested. Real-time data were analysed using the CFX Maestro software (Bio-Rad) and obtained expression values were converted to percentage Gli1 inhibition by normalising to the average Gli1 expression of mSHh-treated control samples.

mouse SMO^D473H = molecular target: T2, mouse SMO^D473H (Mus musculus, UniProt P56726, D477H); assay: Mouse assay: Gli1 qPCR in MEF cells stably expressing mouse SMO D473H; conditions: mSHh-treated, 24 hours; for IC50: Gli1 inhibition by qPCR, read-out: Mouse D473H pIC50 (converted); for Mouse D473H % Inh: percentage Gli1 inhibition
T2 construct: expressed in transfected cells
T2 sequence (P56726 33-793 D477H): as the sequence (P56726 33-793) above, with D445H counted along it
Procedure: as §1, §2, §3

mouse SMO^W535L = molecular target: T3, mouse SMO^W535L (Mus musculus, UniProt P56726, W539L); assay: Mouse assay: Gli1 qPCR in MEF cells stably expressing mouse SMO W535L; conditions: mSHh-treated, 24 hours; for IC50: Gli1 inhibition by qPCR, read-out: Mouse W535L pIC50 (converted); for Mouse W535L % Inh: percentage Gli1 inhibition
T3 construct: expressed in transfected cells
T3 sequence (P56726 33-793 W539L): as the sequence (P56726 33-793) above, with W507L counted along it
Procedure: as §1, §2, §3

IC50 (mouse SMO^WT) [nM]	Mouse WT % Inh (mouse SMO^WT) [%]	IC50 (mouse SMO^D473H) [nM]	Mouse D473H % Inh (mouse SMO^D473H) [%]	IC50 (mouse SMO^W535L) [nM]	Mouse W535L % Inh (mouse SMO^W535L) [%]	SMILES
7.94	99.9	100	99.7	158	63.2	O=C(Nc1ccc(-c2cnc(C3CC3)o2)cc1)c1cccc(CN2CCS(=O)(=O)CC2)c1 [Example 4-5, N-[4-(2-Cyclopropyl-1,3-oxazol-5-yl)phenyl]-3-[(1,1-dioxo-1,4-thiazinan-4-yl)methyl]benzamide]
12.6	99.0	79.4	99.3	126	76.9	O=C(Nc1ccc(-c2cc(C3CC3)no2)cc1)c1cccc(CN2CCS(=O)(=O)CC2)c1 [Example 4-6]
25.1	98.5	200	97.3	200	70.7	O=C(Nc1ccc(-c2nc(CC3CC3)n[nH]2)cc1)c1cccc(CN2CCS(=O)(=O)CC2)c1 [Example 3-7, N-[4-[3-(Cyclopropylmethyl)-1H-1,2,4-triazol-5-yl]phenyl]-3-[(1,1-dioxo-1,4-thiazinan-4-yl)methyl]benzamide]
31.6	98.6	251	97.2	79.4	64.1	O=C(Nc1ccc(-c2nc(CCc3ccccc3)n[nH]2)cc1)c1cccc(CN2CCS(=O)(=O)CC2)c1 [Example 3-31, 3-[(1,1-Dioxo-1,4-thiazinan-4-yl)methyl]-N-[4-[3-(2-phenylethyl)-1H-1,2,4-triazol-5-yl]phenyl]benzamide]
2.51	98.7	15.8	99.2	39.8	82.7	O=C(Nc1ccc(-c2noc(Cc3ccc(Cl)cc3)n2)cc1)c1cccc(CN2CCS(=O)(=O)CC2)c1 [Example 4-18, N-[4-[5-[(4-Chlorophenyl)methyl]-1,2,4-oxadiazol-3-yl]phenyl]-3-[(1,1-dioxo-1,4-thiazinan-4-yl)methyl]benzamide]
20	99.1	158	96.6	200	77.1	CC(C)c1n[nH]c(-c2ccc(NC(=O)c3cccc(CN4CCS(=O)(=O)CC4)c3)cc2)n1.Cl [Example 3-1, 3-[(1,1-dioxo-1,4-thiazinan-4-yl)methyl]-N-[4-(3-propan-2-yl-1H-1,2,4-triazol-5-yl)phenyl]benzamide]
2	97.5	12.6	98.8	20	72.5	Cc1ccc(Cc2nc(-c3ccc(NC(=O)c4cccc(CN5CCS(=O)(=O)CC5)c4)cc3)no2)cc1 [Example 4-16, 3-[(1,1-Dioxo-1,4-thiazinan-4-yl)methyl]-N-[4-[5-[(4-methylphenyl)methyl]-1,2,4-oxadiazol-3-yl]phenyl]benzamide]
79.4	97.4	631	78.5	> 3310	76.7	O=C(Nc1ccc(-c2nc(-c3cccc(Oc4nccs4)c3)n[nH]2)cc1)c1cccc(CN2CCS(=O)(=O)CC2)c1 [Example 3-13, 3-[(1,1-Dioxo-1,4-thiazinan-4-yl)methyl]-N-[4-[3-[3-(1,3-thiazol-2-yloxy)phenyl]-1H-1,2,4-triazol-5-yl]phenyl]benzamide]
25.1	97.3	501	91.0	100	41.6	CC(C)(C)c1n[nH]c(-c2ccc(NC(=O)c3cccc(CN4CCS(=O)(=O)CC4)c3)cc2)n1 [Example 3-2, N-[4-(5-tert-Butyl-1H-1,2,4-triazol-3-yl)phenyl]-3-[(1,1-dioxo-1,4-thiazinan-4-yl)methyl]benzamide]
79.4	98.9	1000	97.0	398	53.4	O=C(Nc1ccc(-c2nc(-c3ccccn3)n[nH]2)cc1)c1cccc(CN2CCS(=O)(=O)CC2)c1 [Example 3-15, 3-[(1,1-Dioxo-1,4-thiazinan-4-yl)methyl]-N-[4-(3-pyridin-2-yl-1H-1,2,4-triazol-5-yl)phenyl]benzamide]
100	99.4	794	93.9	794	58.5	O=C(Nc1ccc(-c2nc(-c3ccc(C(F)(F)F)s3)n[nH]2)cc1)c1cccc(CN2CCS(=O)(=O)CC2)c1 [Example 3-16, 3-[(1,1-Dioxo-1,4-thiazinan-4-yl)methyl]-N-[4-[3-[5-(trifluoromethyl)thiophen-2-yl]-1H-1,2,4-triazol-5-yl]phenyl]benzamide]
79.4	99.0	631	98.4	501	69.1	COc1ccc(Cc2n[nH]c(-c3ccc(NC(=O)c4cccc(CN5CCS(=O)(=O)CC5)c4)cc3)n2)cn1 [Example 3-30, 3-[(1,1-Dioxo-1,4-thiazinan-4-yl)methyl]-N-[4-[5-[(6-methoxypyridin-3-yl)methyl]-1H-1,2,4-triazol-3-yl]phenyl]benzamide]
31.6	97.7	100	93.2	631	61.1	Cn1nc(-c2ccc(NC(=O)c3cccc(CN4CCS(=O)(=O)CC4)c3)nc2)cc1C1CC1 [Example 5-5, N-[5-(5-cyclopropyl-1-methylpyrazol-3-yl)pyridin-2-yl]-3-[(1,1-dioxo-1,4-thiazinan-4-yl)methyl]benzamide]
0.631	97.9	7.94	98.1	10	70.0	Cn1nc(-c2ccc(NC(=O)c3ccc(Cl)c(CN4CCS(=O)(=O)CC4)c3)cc2)cc1C1CC1 [Example 4-24, 4-Chloro-N-[4-(5-cyclopropyl-1-methylpyrazol-3-yl)phenyl]-3-[(1,1-dioxo-1,4-thiazinan-4-yl)methyl]benzamide]
2.51	98.8	20	99.3	31.6	76.0	O=C(Nc1ccc(-c2cc(C3CC3)on2)cc1)c1cccc(CN2CCS(=O)(=O)CC2)c1 [Example 4-7, N-[4-(5-Cyclopropyl-1,2-oxazol-3-yl)phenyl]-3-[(1,1-dioxo-1,4-thiazinan-4-yl)methyl]benzamide]
63.1	98.6	–	–	–	–	O=C(Nc1ccc(-c2cc(C3CC3)[nH]n2)nc1)c1ccc(Cl)c(CN2CCS(=O)(=O)CC2)c1 [Example 5-3, 4-Chloro-N-[6-(5-cyclopropyl-1H-pyrazol-3-yl)pyridin-3-yl]-3-[(1,1-dioxo-1,4-thiazinan-4-yl)methyl]benzamide]
20	99.3	–	–	–	–	Cc1oc(-c2ccc(NC(=O)c3ccc(Cl)c(CN4CCS(=O)(=O)CC4)c3)cn2)nc1Br [Example 5-1, N-[6-(4-bromo-5-methyl-1,3-oxazol-2-yl)pyridin-3-yl]-4-chloro-3-[(1,1-dioxo-1,4-thiazinan-4-yl)methyl]benzamide]
